Results published in patent US20100317626A1, “The Use Of (3-Amino-2-Fluoropropyl) Phosphinic Acid For Treatment Of NERD” (ASTRAZENECA AB, priority 2007, published 2010).

Tests used:
[1] = tested on: transient lower esophageal sphincter relaxations (TLESRs); assay: Clinical study: number of TLESRs after a standardised meal, single-blind randomised placebo-controlled; format: in vivo, healthy volunteers; details: for reduction of the number of transient lower esophageal sphincter relaxations (TLESRs) as compared to placebo: healthy volunteers, 0-3 hours after intake of a standardised meal completed 1 hour after drug intake
Description: A clinical study of (2R)-(3-Amino-2-fluoropropyl)phosphinic acid was performed. The study was a single-blind, randomised, parallel group, placebo-controlled study in healthy volunteers. Each subject was given 2 doses of (2R)-(3-Amino-2-fluoropropyl)phosphinic acid in escalating order and one placebo dose. A dose of (2R)-(3-Amino-2-fluoropropyl)phosphinic acid 0.8 mg/kg was compared to placebo and baclofen (40 mg) was used as a positive control. The order of treatments was randomised. The number of transient lower esophageal sphincter relaxations (TLESRs) 0-3 hours after intake of a standardised meal, (completed 1 hour after drug intake) were reduced by 36% and 47% for (2R)-(3-Amino-2-fluoropropyl)phosphinic acid and baclofen respectively, as compared to placebo (FIG. 1).

[2] = tested on: bile reflux and reflux symptoms; details: patients with persistent non-acid duodenogastroesophageal reflux; cited from earlier work
[3] = clinical study in healthy volunteers

| Structure (SMILES) | inhibition of TLESRs (result in words) [1, 3] | tolerability [1, 3] | reduction of the number of transient lower esophageal sphincter relaxations (TLESRs) as compared to placebo ([1]; dose 0.8 mg/kg) | effect on bile reflux and reflux symptoms [2] | reduction of the number of transient lower esophageal sphincter relaxations (TLESRs) as compared to placebo ([1]; baclofen 40 mg, positive control) |
| --- | --- | --- | --- | --- | --- |
| NC[C@@H](F)C[PH](=O)O [(2R)-(3-Amino-2-fluoropropyl)phosphinic acid] | efficacious | well tolerated | 36% | – | – |
| NCC(CC(=O)O)c1ccc(Cl)cc1 (centres unmarked) [baclofen, reference compound] | – | – | – | inhibit the occurrence of bile reflux and reflux symptoms | 47% |
